“Also recorded” adds a separate entry of the source. Where two headings read alike, the source gives them in different places.
How the values were obtained:
[1] = system: VEGFA-induced dermal neovascularization; test: Matrigel plug implantation assay (VEGFA-induced angiogenesis and lymphatic vessel enlargement); assay type: in vivo, mouse; conditions: mice, 3 mg/kg/day orally, 6 days
Protocol: The mouse studies were conducted under protocols approved by the Veterinary Office of the Canton of Zurich, Switzerland (permit #123/2005). Nine week-old female wild-type FVB mice (Charles River) were used for the experiments (n=6 per group). Prior to Matrigel implantation, the mice were anesthetized by intraperitoneal injection of 200 μl of Dormitor (20 μg/ml medetomidine; Pfizer) and Narketan 10 (8 mg/ml ketamine; Vétoquinol). The left hip of the animals were shaved and subsequently Matrigel was implanted by intradermal injection of 100 μl of unpolymerized growth factor-reduced Matrigel (BD Biosciences) containing 0.5 mg/ml recombinant human VEGFA (#0081109; National Cancer Institute, USA). The mice were treated orally with either 200 μl PEG-400 (Fluka; pH adjusted to 5.2; control group) or with 200 μl PEG-400 containing […] naphthyridine (3 mg/kg/day). Another control group of mice received Matrigel without VEGFA and was treated with 200 μl PEG-400. The treatment was given once daily for six days. Weight and appearance of animals was monitored daily. On the 7th day, the Matrigel implants were removed from the euthanized mice for immunocytochemical examination. The Matrigel implants were frozen in Tissue-Tek O.C.T. compound (Sakura Finetek), sectioned, and processed as described previously (Kajiya et al., 2005). In brief, 6-μm frozen sections were fixed in −20° C. acetone for two minutes and in cold 80% methanol for five minutes, followed by incubation with antibodies against the lymphatic-specific marker LYVE1 (1:1,000; Millipore) and against the pan-endothelial marker […] (anti-mouse; 1:50; BD Biosciences). Corresponding secondary antibodies were labeled with Alexa 488 or Alexa 594 (Invitrogen). Nuclei were counterstained with 20 μg/ml Hoechst 33342 (Invitrogen). Sections were examined under an Axioskop 2 mot plus microscope and digital images were taken using an AxioCam MRc camera (Carl Zeiss). Three pictures each were taken of vascularized areas around the Matrigel implants (maximal distance from the implant: 500 μm). The vessel density, average vessel size and the average tissue area occupied by vessels were determined in CD31/LYVE1 stained sections using the IPLab software (BD Biosciences) as described (Kajiya et al., 2005).
The adenosine A1 receptor antagonist naphthyridine was identified as a novel inhibitor of lymphatic and blood vessel formation in Xenopus tadpoles and in vitro cellular assays, where it acted anti-mitogenic and impaired endothelial tube formation. […] It can be concluded that the ability of naphthyridine to inhibit lymph and blood vessel angiogenesis is conserved between Xenopus and mammals.

LEC = LEC cell proliferation assay; assay type: cell-based, human; conditions: Homo sapiens, 48 h, 10 μM in 0.1% DMSO, 48 hours; read-out: LEC proliferation
Outline: (§1)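 HUVEC and LEC in EBM with 20% FBS, hydrocortisone and dibutyryl-cAMP were treated with compound at 10 μM in 0.1% DMSO for 48 hours. Viable cells read by fluorescence, in five replicates.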

HUVEC [2] = test: HUVEC cell proliferation assay; assay type: cell-based, human; conditions: Homo sapiens, HUVEC, 48 h, 10 μM in 0.1% DMSO, 48 hours; read-out: HUVEC proliferation
Outline: as §1

HUVEC [3] = test: HUVEC tube formation assay; assay type: cell-based, human; conditions: Homo sapiens, HUVEC, 1 μM in 0.1% DMSO
Outline: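 HUVEC and LEC in EBM with 20% FBS, hydrocortisone and dibutyryl-cAMP, up to eleven passages, treated overnight at 37 °C with compound at 1 μM in 0.1% DMSO, then fixed in 4% paraformaldehyde. Read-out: total tube length (μm) per area over three hotspot images per well, triplicate wells.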

Xenopus embryos = system: Xenopus embryos
Outline: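 Stage 31 (37 hpf) Xenopus embryos, five per well, exposed to 20 µM compound in 1% DMSO at 23 °C for 4 days. Edema, lethality and other external phenotypes were scored daily by two investigators at stages 39, 41, 45 and 47.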

Oc1cc(-c2ccccc2)nc2nc(Cl)ccc12 [7-Chloro-4-hydroxy-2-phenyl-1,8-naphthyridine]
density of lymphatic vessels [1]: unchanged
number of VEGFA-induced blood vessels [1]: 36.49±1.49
tissue area covered by lymphatic vessels surrounding VEGFA containing Matrigels [1]: 0.89±0.18%
lymphatic vessel enlargement ([1]; 3 mg/kg/day): potently inhibited; also recorded: reduction
tissue area covered by blood vessels ([1]; 3 mg/kg/day): reduction; also recorded: reduced
activity at 10 µM (LEC): 42 to 48%
activity at 10 µM (HUVEC [2]): 42 to 48%
activity at 1 µM (HUVEC [3]; overnight, read-out: HUVEC tube formation): 50 to 85%
activity at 1 µM (HUVEC [3]; read-out: HUVEC tube formation (tube length)): 50 to 85%
Lethality (NF) (Xenopus embryos; compounds causing edema, 20 μM, 1% DMSO, treatment from stage 31, scored to stage 47): 39 NF
Type of edema Pericordial (Xenopus embryos; embryonic stage): 39 embryonic stages according to Nieuwkoop and Faber (NF)
Lethality (Xenopus embryos; embryonic stage, — = no stage of lethality given): 39 embryonic stages according to Nieuwkoop and Faber (NF)

From patent US9945845B2, “Methods of screening using amphibians” (priority 2009, dated 2018)
